Results reported in patent publication US20220348595A1, “COMPOUNDS AND METHODS FOR THE TARGETED DEGRADATION OF ESTROGEN RECEPTORS” (Endotarget Inc., priority 2021, published 2022).

How the values were obtained:
ER = molecular target: T1, ER (Homo sapiens, UniProt P03372); test: ER antagonism (T47D ERE luciferase), T47d-kb-Luc cells; format: cell-based; conditions: read-out: IC50 (ER antagonistm)
T1 construct: endogenous in cells; host or cells: T47d-kb-Luc (T47D stably transfected with a luciferase reporter gene only)
T1 sequence (P03372 1-595): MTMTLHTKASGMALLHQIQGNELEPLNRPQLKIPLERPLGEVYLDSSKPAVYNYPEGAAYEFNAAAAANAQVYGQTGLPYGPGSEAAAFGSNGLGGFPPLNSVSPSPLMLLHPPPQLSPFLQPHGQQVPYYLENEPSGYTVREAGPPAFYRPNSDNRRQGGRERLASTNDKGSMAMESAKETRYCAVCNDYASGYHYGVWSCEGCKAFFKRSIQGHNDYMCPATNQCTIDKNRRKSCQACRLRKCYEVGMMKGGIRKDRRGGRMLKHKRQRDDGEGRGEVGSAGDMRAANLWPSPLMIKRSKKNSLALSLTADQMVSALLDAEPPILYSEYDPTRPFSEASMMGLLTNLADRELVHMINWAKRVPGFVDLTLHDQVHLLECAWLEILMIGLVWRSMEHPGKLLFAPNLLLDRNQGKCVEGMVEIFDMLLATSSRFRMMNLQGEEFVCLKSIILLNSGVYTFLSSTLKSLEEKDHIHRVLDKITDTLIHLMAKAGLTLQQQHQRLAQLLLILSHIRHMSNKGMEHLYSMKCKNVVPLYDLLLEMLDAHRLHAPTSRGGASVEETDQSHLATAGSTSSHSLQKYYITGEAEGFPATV
Method in brief: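 Stably transfected T47d-kb-Luc human breast cancer cells were used, and antagonism was measured as inhibition of estradiol-driven activity. Data were normalised to the estradiol control. Five concentrations were tested in quadruplicate across at least three experiments.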

[1] = tested on: MCF-7 breast cancer cells; test: MCF-7 proliferation / cell viability assay; format: cell-based; conditions: Homo sapiens, MCF7; MCF-7 proliferation with 0.1 nM 17-beta estradiol; read-out: IC50 (anti-proliferation)
Method in brief: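 MCF-7 cells in 5% FBS DMEM were exposed for 5 days to compound at 6 doses from 10^−10 M to 10^−5 M, with DMSO as vehicle. Viable cells were counted by Coulter counter. Survival ratio = treated/vehicle viable cell number, vehicle set to 100%.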

ERα = molecular target: T2, ERα (Homo sapiens, UniProt P03372); test: ER degradation in MCF-7 cells (Western blot); format: cell-based; conditions: for DC50: ER degradation, 24 hours; for Dmax: MCF7, Maximal ER degradation, read-out: Dmax
T2 construct: endogenous in cells; host or cells: MCF-7
T2 sequence (P03372 1-595): T1 sequence (P03372 1-595)
Method in brief: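 MCF-7 cells treated with a range of compound concentrations for 24 hours, then lysed; 50 μg protein probed for ERα by Western blot with infrared imaging. DC50 is concentration giving 50% ER reduction; Dmax is the highest percentage reduction over the range tested.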

ST1799 PDX tumor = test: ST1799 patient derived breast tumor xenograft; format: in vivo; conditions: single agent versus vehicle control, p=0.0323; athymic nude female mice
Text: In Vivo Efficacy of Exemplary Compound 69 in ST1799 Patient Derived Breast Tumor Xenocraft
Patient-Derived Xenograft tumor fragments were harvested from host animals and implanted into 6-12 week old athymic nude female mice (Charles River NU(NCr)-Foxn1^nu). Treatment initiated at a mean tumor volume of approximately 175-300 mm^3.

Compound	IC50 (ER)	IC50 [1]	DC50 (ERα)	Dmax (ERα)	tumor growth inhibition (ST1799 PDX tumor)
CC/C(=C(/c1ccc(OCCN2CCN(CC3CCN(c4ccc5c(c4)CN([C@H]4CCC(=O)NC4=O)C5=O)CC3)CC2)cc1)c1ccc(B(O)O)cc1)c1ccccc1 [Compound 69]	< 10 nM	< 10 nM	< 10 nM	> 90%	statistically significant tumor growth inhibition
CC/C(=C(/c1ccc(OCCN2CCN(C(=O)N3CCC(N4CCN(c5ccc6c(c5)CN(C5CCC(=O)NC5=O)C6=O)CC4)CC3)CC2)cc1)c1ccc(B(O)O)cc1)c1ccccc1 (stereo not drawn) [Compound 95]	< 10 nM	< 10 nM	10 to 50 nM	> 90%	–
